Experimental data taken from US11306063B2, “Heterocyclic naphthoquinones derivatives for use in the treatment of cancers including Cushing disease” (Commissariat a l'Energie Atomique et aux Energies …, priority 2016, dated 2022).

Legend:
[1] = target: USP8-FL (Homo sapiens, UniProt P40818); test: biochemical
[2] = test system: HCT116 cells; test: Cytotoxicity assay (PrestoBlue cell viability), HCT116; format: cell-based; settings: Homo sapiens, HCT-116; 48 hours treatment
Experimental: Messa, Messa DX5, HCT116, HEK-293, PC-3, LNCaP, HCC827 and H1975 cell lines are issued from the American Type Culture Collection (ATCC).
Messa, Messa DX5 and HCT116 were maintained in McCoy's supplemented with 10% fetal bovine serum, and 1% penicillin/streptomycin. PC-3, LNCaP cells were maintained in RPMI medium supplemented with 10% fetal bovine serum, and 1% penicilin/streptomycin and in the case of Messa DX5: 500 nM Doxorubicin was added to maintain selection pressure. HEK293 were maintained in DMEM medium supplemented with 10% fetal bovine serum, and 1% penicillin/streptomycin. Cells were maintained at 37° C. with 5% CO2, 95% air, and humid atmosphere. In the case of hormonal dependent LNCaP cells, 2 μM DiHydroTestosterone (DHT) was added or not—depending on the type of biological assay—for the same incubation period as compounds.
(§1) For cytotoxicity assays, cells were seeded in 96-well microplates 24 hours before the addition of increasing concentrations of each compound in the culture medium. Cell viability was analyzed 48 hours following addition of each compound through the monitoring of mitochondrial […] activity using PrestoBlue® Cell Viability Reagent (Invitrogen; #A-13261). Paclitaxel was used as a control which is cytotoxic on various cancerous cells although not on chemoresistant MESSA DX5 lineage.

[3] = test system: all cancerous cells tested; test: Cytotoxicity assay, summary over all cancerous cells tested; format: cell-based; settings: Homo sapiens; 48 h treatment; read-out: EC50 of cell death, range over all cancerous cells tested
Experimental: as §1

[4] = Metabolic stability on mouse liver microsomes; format: in vitro ADME; settings: 0.5 μM, up to 30 min; for cofactors (CYP)-mediated metabolism, mouse: with cofactors; for metabolism in the absence of cofactors, mouse: without cofactors
Experimental: Each compound was incubated either with cofactors (n=2) or without cofactors (n=1). Positive controls were: Diclofenac, Midazolam and Amitriptyline.

[5] = target: USP2-FL (Homo sapiens, UniProt O75604); test: biochemical
[6] = test system: EGFR and Met in HEK293T cells; test: Protein expression by immunoblot, HEK293T (Flag-USP8-S680A); format: cell-based, human; settings: FIG. 11
Experimental: One representative experiment out of two is presented.
(§2) Cells were treated by either DMSO (0.5%) or increasing doses of the selected molecules from 1 μM to 10 μM over 6 to 24 hours as indicated. […] Tubulin was detected using anti α-tubulin primary antibody (in-house: the polyclonal Glu-tubulin antibody (L4) is available commercially from Abcys (Paris, France)). HRP-coupled anti-rabbit (#A6154) and anti-mouse (#A4416) secondary antibodies were purchased from Sigma. HRP activity was detected through HRP chemoluminescence detection reagent (Millipore, #WBLUF0100). […] Positive control was Epotoside at 50 μM or 100 μM, a known drug inducing cancerous cell death by apoptosis.

[7] = test system: CyclinD1, FAS, p53, PARP, cMyc in LNCaP cells; test: Protein expression by immunoblot, LNCaP; format: cell-based, human; settings: for Myc expression level, LNCaP / PARP cleavage, LNCaP: 24 h; for Myc expression level, LNCaP / PARP cleavage, LNCaP / phosphorylated p53 (P-Ser392, P-Ser15), LNCaP: FIG. 8; for PARP cleavage, LNCaP: concentration dependent; for phosphorylated p53 (P-Ser392, P-Ser15), LNCaP: FIG. 7C
Experimental: In FIG. 6B and FIG. 6D, LNCaP cells were treated with dihydrotestosterone (DHT) to induce hormonal dependent FAS expression. Actin or Tubulin (Tub) serve as loading controls. One representative experiment out of three is presented.
(§3) Actin or Tubulin (Tub) serve as loading controls. One representative experiment out of three is presented.
Tubulin (Tub) serves as loading controls. One representative experiment out of three is presented.
(§4) Cells were treated by either DMSO (0.5%) or increasing doses of the selected molecules from 1 μM to 10 μM over 6 to 24 hours as indicated. Cell lysates were analyzed by immunoblotting following standard procedure using primary antibodies from Cell Signaling: anti-total P53 (#9282), anti-phosphoP53 Kit (#9919), anti-cyclinD1 (#2926), anti-FAS (#3189), anti EGFR (#4267), anti-Phospho (tyr1068) EGFR (#2234), anti Met (#4560), anti-Akt (#9272), anti Phospho(Ser473)-Akt (#9271) or anti-Myc (Santa Cruz Technology #Sc-40). Tubulin was detected using anti α-tubulin primary antibody (in-house: the polyclonal Glu-tubulin antibody (L4) is available commercially from Abcys (Paris, France)). HRP-coupled anti-rabbit (#A6154) and anti-mouse (#A4416) secondary antibodies were purchased from Sigma. HRP activity was detected through HRP chemoluminescence detection reagent (Millipore, #WBLUF0100). Apoptotic cell death induction was observed through the observation of PARP cleavage using anti-PARP primary antibodies anti-PARP (46D11) (#9532). Positive control was Epotoside at 50 μM or 100 μM, a known drug inducing cancerous cell death by apoptosis.

[8] = test system: HCC827 cells; test: Cell growth inhibition and cell death induction (Incucyte), HCC827; format: cell-based, human; settings: 72 hours, FIG. 12A,B
Source text: FIG. 12: The cell growth inhibition and cell death induction of non-small cell lung cancers (NSCLC), HCC827 cells and derivative Gefitinib-resistant clone H1975 (FIG. 12 A,B) and of PC-3 (FIG. 12 C,D) and LnCAP (FIG. 12 E,F) were monitored using Incucyte microscope. Histogram represent in A,C,E: the final cell area relative to the total well area in (%) and in B,D,F: the fluorescent area in μm2. Error bars indicate standard deviation between 6 technical replicates.
The cell growth inhibition and cell death induction of non-small cell lung cancers (NSCLC), HCC827 cells and derivative Gefitinib-resistant clone H1975 were monitored during a period of 72 hours using Incucyte microscope and dedicated programs allowing to monitor cell confluency (i.e.: cell surface area relative to total well surface) and cell death induction by adding Propidium Iodide (PI) at 1 μg/ml (Sigma Aldrich #P4864) in the culture medium.

[9] = test system: p53 in HCT116 cells; test: Protein expression by immunoblot, HCT116; format: cell-based, human; settings: dose dependent; FIG. 7B
Experimental: as §3, §4

[10] = test system: EGFR, P-EGFR, Met, P-Akt in HCC827 cells; test: Protein expression by immunoblot, HCC827; format: cell-based, human; settings: 6 hours; dose dependent; FIG. 10
Experimental: Tubulin (Tub) serve as loading controls. One representative experiment out of two is presented.
as §2

[11] = dose and time dependent, 6 h or 24 h, FIG. 6

Sequence of USP2-FL (O75604 whole entry): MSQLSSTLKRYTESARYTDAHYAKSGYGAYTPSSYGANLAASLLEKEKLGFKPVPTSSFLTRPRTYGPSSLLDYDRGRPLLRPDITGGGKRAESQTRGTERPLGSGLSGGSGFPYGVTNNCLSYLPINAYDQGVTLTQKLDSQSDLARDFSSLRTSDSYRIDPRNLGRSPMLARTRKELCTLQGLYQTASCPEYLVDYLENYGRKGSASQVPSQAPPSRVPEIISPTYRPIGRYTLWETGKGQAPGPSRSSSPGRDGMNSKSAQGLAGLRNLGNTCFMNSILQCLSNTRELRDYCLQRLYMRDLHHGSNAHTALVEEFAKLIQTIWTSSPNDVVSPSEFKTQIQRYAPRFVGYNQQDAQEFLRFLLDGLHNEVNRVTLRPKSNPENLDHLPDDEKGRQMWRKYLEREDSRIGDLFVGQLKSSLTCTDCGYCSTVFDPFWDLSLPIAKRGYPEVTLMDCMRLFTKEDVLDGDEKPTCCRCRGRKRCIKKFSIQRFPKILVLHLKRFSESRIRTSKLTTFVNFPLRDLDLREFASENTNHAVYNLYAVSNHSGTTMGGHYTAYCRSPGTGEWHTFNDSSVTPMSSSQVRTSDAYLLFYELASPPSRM
Sequence of USP8-FL (P40818 whole entry): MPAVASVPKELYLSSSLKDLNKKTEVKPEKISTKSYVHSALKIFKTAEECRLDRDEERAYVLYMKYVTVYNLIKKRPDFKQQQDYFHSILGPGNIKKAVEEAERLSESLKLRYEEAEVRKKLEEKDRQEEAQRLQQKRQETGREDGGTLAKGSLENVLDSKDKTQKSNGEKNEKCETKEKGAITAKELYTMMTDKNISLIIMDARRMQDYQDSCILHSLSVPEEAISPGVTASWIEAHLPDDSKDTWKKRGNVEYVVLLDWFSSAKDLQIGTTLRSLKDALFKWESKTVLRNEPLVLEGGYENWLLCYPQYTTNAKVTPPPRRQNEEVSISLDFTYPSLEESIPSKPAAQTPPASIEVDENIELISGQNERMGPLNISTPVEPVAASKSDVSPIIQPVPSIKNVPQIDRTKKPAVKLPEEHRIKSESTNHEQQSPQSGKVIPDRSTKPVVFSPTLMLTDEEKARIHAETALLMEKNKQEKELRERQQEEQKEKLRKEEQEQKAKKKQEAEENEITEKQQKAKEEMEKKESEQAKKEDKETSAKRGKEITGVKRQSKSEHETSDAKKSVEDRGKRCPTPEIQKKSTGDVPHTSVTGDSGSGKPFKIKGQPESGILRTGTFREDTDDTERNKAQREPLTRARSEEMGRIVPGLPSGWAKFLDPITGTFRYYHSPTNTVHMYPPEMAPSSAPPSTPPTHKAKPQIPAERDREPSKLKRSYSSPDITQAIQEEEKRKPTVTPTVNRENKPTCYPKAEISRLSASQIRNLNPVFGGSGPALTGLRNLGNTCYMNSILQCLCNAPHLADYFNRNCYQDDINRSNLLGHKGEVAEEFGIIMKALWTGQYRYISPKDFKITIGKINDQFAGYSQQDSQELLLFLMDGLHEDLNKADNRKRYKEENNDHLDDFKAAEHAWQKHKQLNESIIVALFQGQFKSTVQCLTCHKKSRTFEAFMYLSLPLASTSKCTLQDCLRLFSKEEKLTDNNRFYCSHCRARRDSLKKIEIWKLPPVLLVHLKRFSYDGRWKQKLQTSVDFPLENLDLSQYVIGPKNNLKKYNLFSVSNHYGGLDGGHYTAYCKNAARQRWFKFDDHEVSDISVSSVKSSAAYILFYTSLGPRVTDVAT

| SMILES | IC50 [1] | EC50 [2] | EC50 [3] | cofactors (CYP)-mediated metabolism, mouse [4] | metabolism in the absence of cofactors, mouse [4] | IC50 [5] | EGFR levels induced by USP8-S680A, HEK293T ([6]; 6 h) | Met degradation, HEK293T ([6]; 6 hours, dose-dependent) | Myc expression level, LNCaP [7] | PARP cleavage, LNCaP [7] | phosphorylated p53 (P-Ser392, P-Ser15), LNCaP [7] | expression level of CyclinD1, LNCaP [7, 11] | expression level of FAS, LNCaP [7, 11] | p53 expression, LNCaP ([7]; dose dependent, FIG. 7A) | cell growth inhibition and cell death induction, HCC827 [8] | p53 expression, HCT-116 [9] | Akt phosphorylation, HCC827 [10] | EGFR degradation, HCC827 [10] | EGFR phosphorylation, HCC827 [10] | Met degradation, HCC827 [10] |
| --- | --- | --- | --- | --- | --- | --- | --- | --- | --- | --- | --- | --- | --- | --- | --- | --- | --- | --- | --- | --- |
| CCCCS(=O)(=O)Cc1nc2c(nc1CS(=O)(=O)CCCC)C(=O)c1ccccc1C2=O [PCR6236] | < 0.03 µM | 1.3 µM | 1 to 3.5 µM | high | No metabolism was observed | 0.2 µM | markedly reduced EGFR levels | induced Met degradation | decrease | induced the cleavage of PARP | accumulated | strongly decreased | strongly decreased | restored high levels of p53 expression | inhibit cell growth and induce cell death in a dose dependent manner | restored high levels of p53 expression | prevents Akt phosphorylation | EGFR and Met degradation | induces EGFR phosphorylation | EGFR and Met degradation |
| CCCCS(=O)(=O)Cc1nc2c(o1)C(=O)c1ccccc1C2=O [PCR9301] |  | 1.7 µM | 1 to 3.5 µM | not or poorly metabolized | No metabolism was observed |  |  |  | cMyc degradation | induced PARP cleavage | phosphorylation of p53 on Ser15 |  |  |  | inhibit cell growth and induce cell death in a dose dependent manner |  |  |  |  |  |
